Results from US4770997A, “Thermostable bilirubin oxidase and production process thereof” (Toyo Jozo Co., Ltd., priority 1985, dated 1988).

Assays:
[1] = tested on: Bacillus licheniformis B-0891 (FERM BP-952) bilirubin oxidase (Invention Sample); test: Km value of the thermostable bilirubin oxidase of this invention; type: biochemical; conditions: at pH 8.0; substrate bilirubin
Procedure: A reaction mixture (1.49 ml) of the above composition was placed in a small test tube. After heating it to 37° C., 0.01 ml of a 10 mM bilirubin solution was added to initiate the reaction. They were reacted at 37° C. for 10 minutes. After the reaction, 1.5 ml of 1% CPC (N-cetylpyridinium chloride) was added to terminate the reaction and the reaction mixture was subjected to the colorimetric analysis at 453 nm to determine its absorbance [S]. On the other hand, as a blank, a reaction mixture (1.44 ml) of the same type as the above-employed reaction mixture except for the exclusion of the enzyme solution was added with 0.01 ml of the bilirubin solution. The resultant mixture was incubated at 37° C. for 10 minutes precisely. Thereafter, 1.5 ml of 1% CPC and 0.05 ml of the bilirubin oxidase solution were added successively. The thus-prepared mixture was subjected to the colorimetric analysis at 453 nm to determine its absorbance [B]. The enzymatic activity is calculated in accordance with the following equation: [formula] wherein 1 unit (U) of the enzymatic activity is defined as the amount of enzyme which oxidizes 1 μmol of bilirubin per minute under the above-described conditions.

[2] = target: T1, bilirubin oxidase originated from Myrothecium (Prior Art Sample No. 3) (Albifimbria verrucaria, UniProt Q12737); conditions: Prior Art Sample No. 3, originated from Myrothecium; substrate bilirubin; cited from earlier work
T1 sequence (Q12737 39-572): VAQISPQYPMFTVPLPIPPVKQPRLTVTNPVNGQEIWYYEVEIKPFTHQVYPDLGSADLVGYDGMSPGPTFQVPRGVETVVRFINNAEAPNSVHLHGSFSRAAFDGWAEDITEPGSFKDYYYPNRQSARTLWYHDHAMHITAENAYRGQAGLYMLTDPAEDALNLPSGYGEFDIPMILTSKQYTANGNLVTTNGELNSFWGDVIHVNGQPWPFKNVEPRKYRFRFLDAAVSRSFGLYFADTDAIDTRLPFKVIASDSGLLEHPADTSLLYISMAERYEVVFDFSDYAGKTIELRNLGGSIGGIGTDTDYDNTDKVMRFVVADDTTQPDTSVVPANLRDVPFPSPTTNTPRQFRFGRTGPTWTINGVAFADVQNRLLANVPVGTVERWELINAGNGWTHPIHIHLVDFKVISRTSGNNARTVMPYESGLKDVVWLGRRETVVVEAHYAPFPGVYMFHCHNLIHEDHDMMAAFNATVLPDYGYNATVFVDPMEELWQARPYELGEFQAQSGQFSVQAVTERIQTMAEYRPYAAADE

**Q.** With `C=CC1=C(C)/C(=C/c2[nH]c(Cc3[nH]c(/C=C4\NC(=O)C(C)=C4C=C)c(C)c3CCC(=O)O)c(CCC(=O)O)c2C)NC1=O` [Bilirubin] as the compound, how does the Km [1] read?
**A.** The Km was 28.6 µM.

**Q.** And the Km [2]?
**A.** Its Km is 190 µM.
